According to patent publication US8686028B2, “Substituted benzfurochromenes and related compounds for the prevention and treatment of bone related disorders” (Council of Scientific & Industrial Research, priority 2008, dated 2014):
Entries after “also recorded” stand apart in the source; their conditions may differ.

Experiments:
Calvarial osteoblasts [1] = assay: Mineralization of calvarial osteoblasts (Alizarin red extraction); assay type: cell-based, rat; settings: 10^−12 M and 10^−10 M
Calvarial osteoblasts [2] = assay: Alkaline phosphatase (ALP) activity for osteoblast differentiation, calvarial osteoblasts; assay type: cell-based, rat; settings: calvarial osteoblasts, 48 h, 10^−16M to 10^−6M
Experimental: (§1) Neonatal rat calvarial cell cultures are prepared as described previously (Endocrinology 145:3451) using slight modification. Briefly, for primary osteoblast cell cultures, frontal and parietal bones from Sprague-Dawley rat neonates (1-3 day old) are digested in 0.1% collagenase/0.1% dispase in α-MEM to obtain 5 sequential digests. The second through fifth digests are combined and grown to confluence at 37° C. and 5% CO2 in air in α-MEM, supplemented with 10% fetal bovine serum (FBS), 2 mM glutamine, 100 U/ml penicillin-streptomycin, Non-essential amino acid solution and sodium pyruvate.
70 to 80% confluent Calvarial osteoblasts were treated with μM S006-1709 for 48 h in the presence of ascorbate and glycerophosphate. At the end of incubation period, total ALP activity was measured with a method using p-nitrophenylphosphate (PNPP) as substrate. The reaction mixture contained diethanolamine buffer (1 mol/L, pH 9.8), 0.5 mmol/L MgCl2.6H2O, and 10 mmol/L PNPP. ALP activity was measured by taking OD of the amount of colored product formed by the dephosphorylation of PNPP at 405 nm. […] In addition, the effect of S006-1709 on mineralization of calvarial osteoblasts was studied.
(§2) We then studied its effect in osteoblast differentiation in both calvarial and bone marrow osteoblasts. Confluent calvarial osteoblasts (70 to 80%) were treated with S006-1710 for 48 h in the presence of ascorbate and glycerophosphate at concentrations ranging from 10^−16M to 10^−6M. At the end of incubation period, total ALP activity was measured with the same method used previously using p-nitrophenylphosphate (PNPP) as substrate.
70 to 80% confluent Calvarial osteoblasts were treated with S007-1351 for 48 h in the presence of ascorbate and glycerophosphate. At the end of incubation period, total ALP activity was measured with a method using p-nitrophenylphosphate (PNPP) as substrate. The reaction mixture contained diethanolamine buffer (1 mol/L, pH 9.8), 0.5 mmol/L MgCl2.6H2O, and 10 mmol/L PNPP. ALP activity was measured by taking OD of the amount of colored product formed by the dephosphorylation of PNPP at 405 nm.
70 to 80% confluent calvarial osteoblasts were treated with S007-1352 for 48 h in the presence of ascorbate and glycerophosphate at concentrations ranging from 10^−12M to 10^−6 M. At the end of incubation period, total ALP activity was measured with the same method used previously using p-nitrophenylphosphate (PNPP) as substrate.

[3] = test system: Calvarial osteoblast cells; assay: MTT cell proliferation assay; assay type: cell-based, rat; settings: 10^−10 M to 10^−6M, 24 hrs
Experimental: as §1
MTT [3-(4,5-dimethylthiazol-2-yl)-2,5-diphenyltetrazolium bromide] assay, first described by Mosmann in 1983, is based on the ability of a mitochondrial dehydrogenase enzyme from viable cells to cleave the tetrazolium rings of the pale yellow MTT and form a dark blue formazan crystals which is largely impermeable to cell membranes, thus resulting in its accumulation within healthy cells. Solubilisation of the cells by the addition of a detergent results in the liberation of the crystals which are solubilized. The number of surviving cells is directly proportional to the level of the formazan product created. The color can then be quantified using a simple colorimetric assay. The results can be read on a multiwell scanning spectrophotometer (Mosmann T. Rapid colorimetric assay for cellular growth and survival: application to proliferation and cytotoxicity assays. J Immunol Methods. 1983 Dec. 16; 65(1-2):55-63).
Calvarial osteoblast cells plated at a density of 2.0×10^3 cells/200 ul in 96 wells plates. Cells were grown to 60% confluency and then treated with following compounds S006-1709, S006-1710, 5006-1711, S006-1713 and; S006-1714 at concentrations ranging from 10^−10 M to 10^−6M for 24 hrs. After treatment media was removed and 10 mM MTT was added solution in phenol red free DMEM media. After an incubation of 4 hrs the MTT solution was removed. Blue colored crystals were formed which were dissolved in DMSO and absorbance was read on ELISA plate reader at 570 nm wavelength.

[4] = test system: ovariectomized immature female rats; assay: Anti-estrogenicity, uterine fresh weight with ethynyl estradiol co-treatment; assay type: in vivo, rat; settings: 10 mg/Kg oral plus ethynyl estradiol 0.01 mg/kg; for Anti-Estrogenic Activity, % (second line of cell): relative to ethynyl estradiol
Experimental: (§3) 21 day old immature female rats (25-30 grams) were ovariectomized and given 7 days post-operative rest. Thereafter they were treated orally with the test agent (10 mg/Kg body weight) or with vehicle or Ethynyl estradiol, the reference standard for three consecutive days. For anti-estrogenicity, other than the test chemical, ethynyl estradiol (0.01 mg/kg) was given at 15 minutes interval before the test chemical. Autopsy was done 24 h after last treatment and uterine fresh weight was taken.

bone marrow osteoblasts = assay: Mineralization of bone marrow osteoblasts (Alizarin red extraction); assay type: cell-based; settings: 10^−12M and 10^−10 M, 18 d bone marrow culture
Source text: In addition, the effect of S006-1709 on mineralization of bone marrow osteoblasts was also studied.
In addition, the effect of S006-1710 on mineralization of bone marrow osteoblasts was also studied.

[5] = test system: ovariectomized immature female rats; assay: Estrogenicity, uterine fresh weight in ovariectomized immature female rats; assay type: in vivo, rat; settings: 10 mg/Kg oral; for Estrogenic Activity, % (second line of cell): relative to vehicle; for Estrogenic Activity (uterine fresh weight): three consecutive days, vehicle 16.46
Experimental: as §3

[6] = test system: bone marrow derived osteoblasts; assay: ALP activity in bone marrow derived osteoblasts; assay type: cell-based; settings: 10^−16M to 10^−6M
Experimental: as §2

With `COc1ccccc1-c1coc2cc(O)ccc2c1=O` [Compound S006-1710, 7-Hydroxy-3-(2-methoxy-phenyl)-chromen-4-one] the “mineralization of calvarial osteoblasts (nascent calcium deposition, Alizarin red)” value (Calvarial osteoblasts [1]) was “stimulate mineralization”, the “osteoblast ALP activity vs vehicle control” value (Calvarial osteoblasts [2]) was “significant increase” and the “effect on osteoblast proliferation (MTT)” value [3] was “no osteoblast proliferating action”. For the same compound, the “Anti-Estrogenic Activity (uterine fresh weight)” value [4] was 79.9, the “anti-estrogenicity (in words)” value [4] was “not found to be anti-estrogenic” and the “Anti-Estrogenic Activity, % (second line of cell)” value [4] was 19%. For the same compound, the “mineralization of bone marrow osteoblasts (nascent calcium deposition, Alizarin red)” value (bone marrow osteoblasts) was “stimulate mineralization; also recorded: significant increase”, the “estrogenicity (in words)” value [5] was “estrogenic” and the “Estrogenic Activity, % (second line of cell)” value [5] was 446%. For the same compound, the “Estrogenic Activity (uterine fresh weight)” value [5] was 89.96.
For `O=c1c(-c2ccccc2O)coc2cc(O)ccc12` [Compound S006-1711, 7-Hydroxy-3-(2-hydroxy-phenyl)-chromen-4-one], the “mineralization of calvarial osteoblasts (nascent calcium deposition, Alizarin red)” value (Calvarial osteoblasts [1]) was “stimulated mineralization”, the melting point was 196 to 198 °C and the “osteoblast ALP activity vs vehicle control” value (Calvarial osteoblasts [2]) was “stimulated ALP activity”. The “effect on osteoblast proliferation (MTT)” value [3] was “did not have any effect”, the “Anti-Estrogenic Activity (uterine fresh weight)” value [4] was 85.16 and the “anti-estrogenicity (in words)” value [4] was “not found to be anti-estrogenic”. The “Anti-Estrogenic Activity, % (second line of cell)” value [4] was 13%, the “mineralization of bone marrow osteoblasts (nascent calcium deposition, Alizarin red)” value (bone marrow osteoblasts) was “stimulated mineralization” and the “estrogenicity (in words)” value [5] was “estrogenic”. The “Estrogenic Activity, % (second line of cell)” value [5] was 192%, the “Estrogenic Activity (uterine fresh weight)” value [5] was 48.13 and the “ALP activity in bone marrow derived osteoblasts” value [6] was “stimulated ALP activity”.
